# Source: ChEMBL document CHEMBL1131659, “Synthesis, SAR and pharmacology of CP-293,019: a potent, selective dopamine D4 receptor antagonist” (Bioorg Med Chem Lett, 1998)
# Assays:
# [1] = molecular target: T1, D(4) dopamine receptor (Homo sapiens, UniProt P21917); assay: biochemical
# T1 sequence (P21917 whole entry): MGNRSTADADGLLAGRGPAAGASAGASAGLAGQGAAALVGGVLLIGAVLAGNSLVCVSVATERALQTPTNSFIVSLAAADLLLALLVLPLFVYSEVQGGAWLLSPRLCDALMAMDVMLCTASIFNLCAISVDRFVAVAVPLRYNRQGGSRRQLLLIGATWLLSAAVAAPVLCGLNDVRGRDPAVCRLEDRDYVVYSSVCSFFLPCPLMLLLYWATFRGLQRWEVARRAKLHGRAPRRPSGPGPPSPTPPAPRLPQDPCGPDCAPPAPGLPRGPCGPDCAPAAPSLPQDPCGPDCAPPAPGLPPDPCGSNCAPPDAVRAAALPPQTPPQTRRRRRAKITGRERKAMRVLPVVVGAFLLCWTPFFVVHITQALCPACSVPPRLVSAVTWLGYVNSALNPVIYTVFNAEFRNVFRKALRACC
# Description: In vitro binding affinity at human D4 dopamine receptor in CHO cells by [3H]spiperone displacement.
# [2] = The compound was tested In Vitro for half life in human liver microsomes.; format: ADME, Microsome
# [3] = In vivo half life of compound in rat plasma after a oral dose of 10 mg/kg (in water, N=4); format: ADME, organism-based; parameters: dose 10 mg/kg, route oral
# [4] = molecular target: T2, 5-hydroxytryptamine receptor 1A (Mus musculus, UniProt Q64264); assay: In vitro binding affinity against 5-hydroxytryptamine 1A receptor in CHO cells; format: cell-based
# T2 sequence (Q64264 whole entry): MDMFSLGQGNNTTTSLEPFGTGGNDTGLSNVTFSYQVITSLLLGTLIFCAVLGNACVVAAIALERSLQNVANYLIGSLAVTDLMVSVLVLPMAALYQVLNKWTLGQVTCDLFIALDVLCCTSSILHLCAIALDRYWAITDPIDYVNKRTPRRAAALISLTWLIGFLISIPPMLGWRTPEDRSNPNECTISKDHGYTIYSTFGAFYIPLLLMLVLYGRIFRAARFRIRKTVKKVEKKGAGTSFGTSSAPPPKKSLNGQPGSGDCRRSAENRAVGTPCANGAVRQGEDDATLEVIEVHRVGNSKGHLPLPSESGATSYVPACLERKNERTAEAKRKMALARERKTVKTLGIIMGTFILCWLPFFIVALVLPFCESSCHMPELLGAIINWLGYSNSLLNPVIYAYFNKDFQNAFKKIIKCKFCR
# [5] = In vivo maximum concentration of compound in rat plasma after a oral dose of 10 mg/kg (in water, N=4); format: ADME, organism-based; parameters: dose 10 mg/kg, route oral
# [6] = tested on: Rattus norvegicus; assay: Compound was tested for antagonistic activity against APO-induced stereotypy in rats when administered po; format: functional; details: read-out: ID50 (the source's name)
# [7] = tested on: Rattus norvegicus; assay: Compound was tested for spontaneous locomotor activity in nonhabituated rats when administered po; format: functional; details: read-out: ID50 (the source's name)
# [8] = tested on: Rattus norvegicus; assay: in vivo for inhibition against hyperactivity induced by apomorphine (1.78 mg/kg) in habituated rats by oral administration; format: functional; details: read-out: ID50 (the source's name)
# [9] = tested on: Rattus norvegicus; assay: Compound was tested for inhibition of APO-induced blockade of prepulse inhibition in rats when administered sc; format: functional; details: read-out: ID50 (the source's name)
# [10] = molecular target: D(3) dopamine receptor (Homo sapiens, UniProt P35462); assay: In vitro binding affinity against human D3 dopamine receptor in CHO cells using [3H]spiperone; format: cell-based
# [11] = tested on: Rattus norvegicus; assay: in vivo for inhibition against hyperactivity induced by apomorphine (1.78 mg/kg) in habituated rats by subcutaneous administration; format: functional; details: sc, read-out: ID50 (the source's name)
# [12] = molecular target: 5-hydroxytryptamine receptor 2A (Homo sapiens, UniProt P28223); assay: In vitro binding affinity against 5-hydroxytryptamine 2A receptor in CHO cells; format: cell-based
# [13] = In vivo percentage mean absolute bioavailability of compound in rat after an oral dose of 10 mg/kg (in water, N=4); format: ADME, organism-based
# Chain of D(3) dopamine receptor (P35462 whole entry): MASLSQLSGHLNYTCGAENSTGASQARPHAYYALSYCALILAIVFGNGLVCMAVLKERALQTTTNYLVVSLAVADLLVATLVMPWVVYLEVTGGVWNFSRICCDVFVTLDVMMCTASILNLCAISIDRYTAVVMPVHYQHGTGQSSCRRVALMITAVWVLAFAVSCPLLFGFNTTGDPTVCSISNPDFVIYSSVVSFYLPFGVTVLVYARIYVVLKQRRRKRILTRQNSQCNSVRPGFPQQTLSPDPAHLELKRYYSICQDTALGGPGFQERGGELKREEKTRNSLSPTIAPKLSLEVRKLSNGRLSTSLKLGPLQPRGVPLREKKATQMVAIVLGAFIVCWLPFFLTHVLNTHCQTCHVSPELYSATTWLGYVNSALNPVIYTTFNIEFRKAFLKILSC
# Chain of 5-hydroxytryptamine receptor 2A (P28223 whole entry): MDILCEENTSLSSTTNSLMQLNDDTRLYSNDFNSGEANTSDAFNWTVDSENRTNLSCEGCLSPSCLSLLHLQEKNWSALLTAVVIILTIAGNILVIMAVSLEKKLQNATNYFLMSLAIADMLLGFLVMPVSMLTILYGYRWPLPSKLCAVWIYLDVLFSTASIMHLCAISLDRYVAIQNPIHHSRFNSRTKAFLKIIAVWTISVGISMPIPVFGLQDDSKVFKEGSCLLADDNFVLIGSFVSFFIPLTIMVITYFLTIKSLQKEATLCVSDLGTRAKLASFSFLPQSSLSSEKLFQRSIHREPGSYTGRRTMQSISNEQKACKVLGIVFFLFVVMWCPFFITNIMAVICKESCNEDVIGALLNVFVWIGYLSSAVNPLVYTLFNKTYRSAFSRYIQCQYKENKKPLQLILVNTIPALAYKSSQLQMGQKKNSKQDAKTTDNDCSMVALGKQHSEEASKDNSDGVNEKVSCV
smiles,measurement,setting,value
Fc1ccc(OC[C@H]2CC[C@@H]3CN(c4ncc(F)cn4)CCN3C2)cc1,Ki,[1],106 nM
c1ccc(OC[C@@H]2CC[C@H]3CN(c4ccccn4)CCN3C2)cc1,Ki,[1],1.7 nM
COc1ccc(OC[C@@H]2CC[C@H]3CN(c4ncccn4)CCN3C2)cc1,Ki,[1],18 nM
Fc1ccc(OC[C@@H]2CC[C@H]3CN(c4ccc(F)cc4)CCN3C2)cc1,Ki,[1],5.3 nM
c1ccc(OC[C@@H]2CC[C@H]3CN(c4ncccn4)CCN3C2)cc1,half-life,[2],3 min
same,Ki,[1],3.5 nM
CC(=O)Nc1ccc(OC[C@@H]2CC[C@H]3CN(c4ncccn4)CCN3C2)cc1,Ki,[1],316 nM
Fc1ccc(OC[C@@H]2CC[C@@H]3CN(c4ncc(F)cn4)CCN3C2)cc1,Ki,[1],39 nM
Fc1ccc(OC[C@@H]2CC[C@H]3CN(c4ncc(F)cn4)CCN3C2)cc1,half-life,[3],270 min
same,IC50,[4],180 nM
same,Cmax,[5],730 ng/mL
same,ED50,[6],> 56 mg/kg
same,ED50,[7],> 56 mg/kg
same,half-life,[2],12.2 min
same,ED50,[8],13.3 mg/kg
same,ED50,[9],17.8 mg/kg
same,Ki,[10],> 2000 nM
same,ED50,[11],10 mg/kg
same,Ki,[1],3.4 nM
same,IC50,[12],150 nM
same,bioavailability,[13],93%
c1ccc(OC[C@@H]2CC[C@H]3CN(c4ccccc4)CCN3C2)cc1,Ki,[1],1.6 nM
CC(C)(C)c1ccc(OC[C@@H]2CC[C@H]3CN(c4ncccn4)CCN3C2)cc1,Ki,[1],20 nM
c1ccc(OCC2CCC3CN(c4ncccn4)CCN3C2)cc1 (stereo unspecified),Ki,[1],3.8 nM
Fc1ccc(OC[C@H]2CC[C@H]3CN(c4ncc(F)cn4)CCN3C2)cc1,Ki,[1],2 nM
c1ccc(OC[C@H]2CC[C@H]3CN(c4ncccn4)CCN3C2)cc1 (stereo in doubt; 3a),Ki,[1],4.1 nM
c1ccc(OC[C@H]2CC[C@H]3CN(c4ncccn4)CCN3C2)cc1 (stereo in doubt; 3b),Ki,[1],1.7 nM
Fc1ccc(OC[C@@H]2CC[C@H]3CN(c4ncccn4)CCN3C2)cc1,half-life,[2],3.6 min
same,Ki,[1],2.8 nM
Fc1ccc(OC[C@@H]2CC[C@H]3CN(c4ccc(Cl)cn4)CCN3C2)cc1,Ki,[1],3.2 nM
COC(=O)c1ccc(OC[C@@H]2CC[C@H]3CN(c4ncccn4)CCN3C2)cc1,Ki,[1],127 nM
